Source: patent US11498899B2, “Nitrone herbicides” (FMC Corporation, priority 2016, dated 2022)

How the values were obtained:
[1] = tested on: rice (Oryza sativa); assay: Test B flooded paddy test, visual rating 0-100 (0 no effect, 100 complete control); conditions: Flood, 250 g ai/ha, applied to paddy water, rated after 13 to 15 days
[2] = tested on: ragweed (common ragweed, Ambrosia elatior); assay: Test A postemergence, visual injury rating 0-100; format: in vivo; conditions: 0 to 100 scale
[3] = tested on: corn (Zea mays); assay: Test A postemergence, visual injury rating 0-100; format: in vivo; conditions: 0 to 100 scale
[4] = tested on: pigweed (Amaranthus retroflexus); assay: Test A postemergence, visual injury rating 0-100; format: in vivo; conditions: 0 to 100 scale
[5] = tested on: ryegrass, Italian (Italian ryegrass, Lolium multiflorum); assay: Test A postemergence, visual injury rating 0-100; format: in vivo; conditions: 0 to 100 scale
[6] = tested on: kochia (Kochia scoparia); assay: Test A postemergence, visual injury rating 0-100; format: in vivo; conditions: 0 to 100 scale
[7] = tested on: blackgrass (Alopecurus myosuroides); assay: Test A postemergence, visual injury rating 0-100; format: in vivo; conditions: 0 to 100 scale
[8] = tested on: foxtail, giant (giant foxtail, Setaria faberii); assay: Test A postemergence, visual injury rating 0-100; format: in vivo; conditions: 0 to 100 scale
[9] = tested on: wheat (Triticum aestivum); assay: Test A postemergence, visual injury rating 0-100; format: in vivo; conditions: 0 to 100 scale
[10] = tested on: barnyardgrass (Echinochloa crus-galli); assay: Test A postemergence, visual injury rating 0-100; format: in vivo; conditions: 0 to 100 scale
[11] = tested on: galium (catchweed bedstraw, Galium aparine); assay: Test A postemergence, visual injury rating 0-100; format: in vivo; conditions: 0 to 100 scale
[12] = tested on: barnyardgrass (Echinochloa crus-galli); assay: Test B flooded paddy test, visual rating 0-100; conditions: Flood, 250 g ai/ha, applied to paddy water, rated after 13 to 15 days
[13] = tested on: ducksalad (Heteranthera limosa); assay: Test B flooded paddy test, visual rating 0-100; conditions: Flood, 250 g ai/ha, applied to paddy water, rated after 13 to 15 days
[14] = tested on: barnyardgrass (Echinochloa crus-galli); assay: Test A preemergence, visual injury rating 0-100 (0 no effect, 100 complete control); format: in vivo; conditions: for Barnyardgrass plant response rating: 31 g ai/ha, 0 to 100 scale (0 no effect, 100 complete control), approx. 10 days
[15] = tested on: ragweed (common ragweed, Ambrosia elatior); assay: Test A preemergence, visual injury rating 0-100; format: in vivo; conditions: for Ragweed plant response rating: 31 g ai/ha, 0 to 100 scale (0 no effect, 100 complete control), approx. 10 days
[16] = tested on: pigweed (Amaranthus retroflexus); assay: Test A preemergence, visual injury rating 0-100; format: in vivo; conditions: for Pigweed plant response rating: 31 g ai/ha, 0 to 100 scale (0 no effect, 100 complete control), approx. 10 days
[17] = tested on: ryegrass, Italian (Italian ryegrass, Lolium multiflorum); assay: Test A preemergence, visual injury rating 0-100; format: in vivo; conditions: for Ryegrass, Italian plant response rating: 31 g ai/ha, 0 to 100 scale (0 no effect, 100 complete control), approx. 10 days
[18] = tested on: kochia (Kochia scoparia); assay: Test A preemergence, visual injury rating 0-100; format: in vivo; conditions: for Kochia plant response rating: 31 g ai/ha, 0 to 100 scale (0 no effect, 100 complete control), approx. 10 days
[19] = tested on: foxtail, giant (giant foxtail, Setaria faberii); assay: Test A preemergence, visual injury rating 0-100; format: in vivo; conditions: for Foxtail, Giant plant response rating: 31 g ai/ha, 0 to 100 scale (0 no effect, 100 complete control), approx. 10 days

Compound | Rice plant response rating (0 to 100 scale) [1] | Ragweed plant response rating ([2]; 31 g ai/ha) | Ragweed plant response rating ([2]; 125 g ai/ha) | Corn plant response rating ([3]; 125 g ai/ha) | Pigweed plant response rating ([4]; 125 g ai/ha) | Ryegrass, Italian plant response rating ([5]; 125 g ai/ha) | Kochia plant response rating ([6]; 125 g ai/ha) | Blackgrass plant response rating ([7]; 125 g ai/ha) | Foxtail, Giant plant response rating ([8]; 125 g ai/ha) | Wheat plant response rating ([9]; 125 g ai/ha) | Barnyardgrass plant response rating ([10]; 125 g ai/ha) | Galium plant response rating ([11]; 125 g ai/ha) | Barnyardgrass plant response rating (0 to 100 scale) [12] | Ducksalad plant response rating (0 to 100 scale) [13] | Barnyardgrass plant response rating (0 to 100 scale) ([14]; 125 g ai/ha) | Ragweed plant response rating (0 to 100 scale) ([15]; 125 g ai/ha) | Pigweed plant response rating (0 to 100 scale) ([16]; 125 g ai/ha) | Ryegrass, Italian plant response rating (0 to 100 scale) ([17]; 125 g ai/ha) | Kochia plant response rating (0 to 100 scale) ([18]; 125 g ai/ha) | Foxtail, Giant plant response rating (0 to 100 scale) ([19]; 125 g ai/ha) | other results
CC1=[N+]([O-])[C@@H](C(=O)Nc2cccc(F)c2F)[C@H](c2cccc(OC(C)(C)C)c2)C1 [Compound 69] | 0 | 0 | 20 | 0 | 20 | 70 | 0 | 70 | 90 | 0 | 70 | 40 | 90 | 95 | 90 | 0 | 0 | 80 | 0 | 100 | Corn plant response rating ([3]; 31 g ai/ha): 0; Pigweed plant response rating ([4]; 31 g ai/ha): 0; Ryegrass, Italian plant response rating ([5]; 31 g ai/ha): 30; Kochia plant response rating ([6]; 31 g ai/ha): 0; Blackgrass plant response rating ([7]; 31 g ai/ha): 10; Foxtail, Giant plant response rating ([8]; 31 g ai/ha): 20; Wheat plant response rating ([9]; 31 g ai/ha): 0; Barnyardgrass plant response rating ([10]; 31 g ai/ha): 30; Galium plant response rating ([11]; 31 g ai/ha): 20; Barnyardgrass plant response rating [14]: 90; Ragweed plant response rating [15]: 0; Pigweed plant response rating [16]: 0; Ryegrass, Italian plant response rating [17]: 20; Kochia plant response rating [18]: 0; Foxtail, Giant plant response rating [19]: 90
CC1=[N+]([O-])[C@@H](C(=O)Nc2cccc(F)c2F)[C@H](c2cccc(Oc3ncc(F)cc3F)c2)C1 [Compound 70] | 0 | 0 | 0 | 0 | 20 | 0 | 0 | 30 | 0 | 0 | 70 | 30 | 0 | 0 | 80 | 0 | 0 | 0 | 0 | 90 | Corn plant response rating ([3]; 31 g ai/ha): 0; Pigweed plant response rating ([4]; 31 g ai/ha): 0; Ryegrass, Italian plant response rating ([5]; 31 g ai/ha): 0; Kochia plant response rating ([6]; 31 g ai/ha): 0; Blackgrass plant response rating ([7]; 31 g ai/ha): 0; Foxtail, Giant plant response rating ([8]; 31 g ai/ha): 0; Wheat plant response rating ([9]; 31 g ai/ha): 0; Barnyardgrass plant response rating ([10]; 31 g ai/ha): 20; Galium plant response rating ([11]; 31 g ai/ha): 0; Barnyardgrass plant response rating [14]: 40; Ragweed plant response rating [15]: 0; Pigweed plant response rating [16]: 0; Ryegrass, Italian plant response rating [17]: 0; Kochia plant response rating [18]: 0; Foxtail, Giant plant response rating [19]: 20
CC1=[N+]([O-])[C@@H](C(=O)Nc2cccc(F)c2F)[C@H](c2cccc(Oc3ccc(F)cn3)c2)C1 [Compound 84] | 0 | – | 0 | 0 | 10 | 20 | 0 | 90 | 50 | 0 | 40 | 40 | 0 | 0 | 10 | 0 | 0 | 0 | 0 | 30 | Ragweed plant response rating ([2]; 500 g ai/ha): 30; Corn plant response rating ([3]; 500 g ai/ha): 40; Pigweed plant response rating ([4]; 500 g ai/ha): 40; Ryegrass, Italian plant response rating ([5]; 500 g ai/ha): 90; Kochia plant response rating ([6]; 500 g ai/ha): 20; Blackgrass plant response rating ([7]; 500 g ai/ha): 90; Foxtail, Giant plant response rating ([8]; 500 g ai/ha): 70; Wheat plant response rating ([9]; 500 g ai/ha): 50; Barnyardgrass plant response rating ([10]; 500 g ai/ha): 90; Galium plant response rating ([11]; 500 g ai/ha): 40; Barnyardgrass plant response rating (0 to 100 scale) ([14]; 500 g ai/ha): 90; Ragweed plant response rating (0 to 100 scale) ([15]; 500 g ai/ha): 20; Pigweed plant response rating (0 to 100 scale) ([16]; 500 g ai/ha): 30; Ryegrass, Italian plant response rating (0 to 100 scale) ([17]; 500 g ai/ha): 80; Kochia plant response rating (0 to 100 scale) ([18]; 500 g ai/ha): 50; Foxtail, Giant plant response rating (0 to 100 scale) ([19]; 500 g ai/ha): 90
CC1=[N+]([O-])C(C(=O)Nc2cccc(F)c2F)C(c2cccc(Cl)n2)C1 (centres unmarked) [Compound 89] | 0 | – | 0 | 0 | 0 | 0 | 0 | 0 | 0 | 0 | 20 | 0 | 0 | 30 | 0 | 0 | 0 | 0 | 0 | 0 | Ragweed plant response rating ([2]; 500 g ai/ha): 0; Corn plant response rating ([3]; 500 g ai/ha): 0; Pigweed plant response rating ([4]; 500 g ai/ha): 0; Ryegrass, Italian plant response rating ([5]; 500 g ai/ha): 0; Kochia plant response rating ([6]; 500 g ai/ha): 0; Blackgrass plant response rating ([7]; 500 g ai/ha): 0; Foxtail, Giant plant response rating ([8]; 500 g ai/ha): 0; Wheat plant response rating ([9]; 500 g ai/ha): 0; Barnyardgrass plant response rating ([10]; 500 g ai/ha): 30; Galium plant response rating ([11]; 500 g ai/ha): 0; Barnyardgrass plant response rating (0 to 100 scale) ([14]; 500 g ai/ha): 40; Ragweed plant response rating (0 to 100 scale) ([15]; 500 g ai/ha): 0; Pigweed plant response rating (0 to 100 scale) ([16]; 500 g ai/ha): 0; Ryegrass, Italian plant response rating (0 to 100 scale) ([17]; 500 g ai/ha): 0; Kochia plant response rating (0 to 100 scale) ([18]; 500 g ai/ha): 0; Foxtail, Giant plant response rating (0 to 100 scale) ([19]; 500 g ai/ha): 30
